Reference: patent US6989371B1, “Bombesin analogs for treatment of cancer” (Dabur Research Foundation, priority 1996, dated 2006)
Non-standard residues stand in square brackets, D forms with d. Residues, ends and D or L forms follow the SMILES beside them. *: point of attachment. Aib = CC(C)(N)C(=O)O; Butyryl = CCCC(=O)*

Key:
[1] = test system: MOLT-4 (leukemia); assay: MTT cytotoxicity assay, 72 hours (Example 13); format: cell-based, human
Experimental: (§1) The cytotoxic activity of other synthesized bombesin analogs was tested on eight human tumor cell lines namely HT-29, SW620, PTC (all colon), PA-1 (ovary), A549 (lung), HBL100(breast), MOLT-4 (leukemia) and DU145 (prostate). The tumor cells were collected at exponential growth phase and resuspended in medium (1.5×10^6) cells/ml in RPMI 1640 containing 10% FBS). 150 μl of medium was added to the wells of a 96-well tissue culture plate (Nunc, Denmark) followed by 30 μl of cell suspension. The plate was left in incubator (37° C., 5% CO2 overnight. 20 μl of the peptide (10^−7×10^×10M concentration) was added to marked wells of the 96-well plate. Each concentration was plated in cells served as blanks. A total volume of 200 μl was ensured in each well and plate was left in incubator (37° C., 5% CO2). After 72 hours of incubation an MTT assay was performed and percentage cytotoxicity was calculated with respect to control cells. Following tables show the cytotoxicity achieved on various cell lines at different concentrations.

[2] = test system: PA-1 (ovary); assay: MTT cytotoxicity assay, 72 hours (Example 13); format: cell-based, human
Experimental: as §1

[3] = test system: DU145 (prostate); assay: MTT cytotoxicity assay, 72 hours (Example 13); format: cell-based, human
Experimental: as §1

[4] = test system: PTC (colon); assay: MTT cytotoxicity assay, 72 hours (Example 13); format: cell-based, human
Experimental: as §1

[5] = test system: HBL100 (breast); assay: MTT cytotoxicity assay, 72 hours (Example 13); format: cell-based, human; details: HBL
Experimental: as §1

[6] = test system: A549 (lung); assay: MTT cytotoxicity assay, 72 hours (Example 13); format: cell-based, human
Experimental: as §1

[7] = test system: SW620 (colon); assay: MTT cytotoxicity assay, 72 hours (Example 13); format: cell-based, human
Experimental: as §1

[8] = test system: HT-29 (colon); assay: MTT cytotoxicity assay, 72 hours (Example 13); format: cell-based, human
Experimental: as §1

[9] = test system: KB (oral squamous); assay: MTT cytotoxicity assay, 48 hours (Example 14); format: cell-based, human
Experimental: (§2) The cytotoxic effect of peptide sequences SEQ ID NO: 9, SEQ ID NO: 10, SEQ ID NO: 11 and SEQ ID NO: 12, were studied by MTT assay which is based on the principle of uptake of MTT[3-[4,5-dimethylthiazol-2-yl]-2,5-diphenyl tetrazolium bromide], a tetrazolium salt by the metabolically active cells where it is metabolized by active mitochondria into a blue colored formazan product which can be read spectrophotometrically. Tumor cells KB (oral squamous). HuTu80 (Stomach), PTC and SW620 (colon), U87MG (Glioblastoma), HBL 100. (Breast), HeP2 (laryngeal) and L132 (Lung) were incubated with the peptide analogs for 48 hours at 37° C. in a 96-well culture plate, followed by the addition of 100 μl MTT and further incubation of 1 hour. The formazon crystals formed inside the cells were dissolved with a detergent comprising 10% Sodium dodecyl sulfate and 0.01 N HCl and optical density read on a multiscan ELISA reader. The optical density was directly proportional to the number of proliferating and metabolically active cells.

[10] = test system: PTC (colon); assay: MTT cytotoxicity assay, 48 hours (Example 14); format: cell-based, human
Experimental: as §2

[11] = test system: HuTu80 (Stomach); assay: MTT cytotoxicity assay, 48 hours (Example 14); format: cell-based, human
Experimental: as §2

[12] = test system: SW620 (colon); assay: MTT cytotoxicity assay, 48 hours (Example 14); format: cell-based, human
Experimental: as §2

[13] = test system: HBL 100 (Breast); assay: MTT cytotoxicity assay, 48 hours (Example 14); format: cell-based, human
Experimental: as §2

[14] = test system: HeP2 (laryngeal); assay: MTT cytotoxicity assay, 48 hours (Example 14); format: cell-based
Experimental: as §2

[15] = test system: L132 (Lung); assay: MTT cytotoxicity assay, 48 hours (Example 14); format: cell-based
Experimental: as §2

[16] = test system: U87MG (Glioblastoma); assay: MTT cytotoxicity assay, 48 hours (Example 14); format: cell-based
Experimental: as §2

## CC[C@H](C)[C@H](NC(=O)[C@H](Cc1c[nH]cn1)NC(=O)C(C)(C)NC(=O)[C@@H](NC(=O)[C@H](C)NC(=O)[C@H](Cc1c[nH]c2ccccc12)NC(=O)[C@H](CCC(N)=O)NC(=O)[C@H](N)Cc1ccccc1)C(C)C)C(N)=O [SEQ ID: 7, D-Phe-Gln-Trp-Ala-Val-Aib-His-Ile-NH2] (H-[dF]QWAV[Aib]HI-NH2; N-terminus assumed)
[1]; MOLT4, 1 nM
  Percent Cytotoxicity: NIL
[1]; MOLT4, 10 nM
  Percent Cytotoxicity: NIL
[1]; MOLT4, 100 nM
  Percent Cytotoxicity: 13.1 ± 0.3%
[2]; PA-1, 1 nM
  Percent Cytotoxicity: 25.6 ± 2.9%
[2]; PA-1, 10 nM
  Percent Cytotoxicity: 22.7 ± 3.4%
[2]; PA-1, 100 nM
  Percent Cytotoxicity: 9.6 ± 4.1%
[2]; PA-1, 100 PM
  Percent Cytotoxicity: 24.5 ± 4.2%
[3]; DU145, 10 nM
  Percent Cytotoxicity: NIL
[3]; DU145, 100 nM
  Percent Cytotoxicity: NIL
[4]; 1 nM
  Percent Cytotoxicity: 12.4 ± 2.1%
[4]; 10 nM
  Percent Cytotoxicity: 7.6 ± 0.7%
[4]; 100 nM
  Percent Cytotoxicity: 9.3 ± 1.8%
[4]; 100 PM
  Percent Cytotoxicity: 8.2 ± 0.9%
[5]; 1 nM
  Percent Cytotoxicity: 12.0 ± 0.7%
[5]; 10 nM
  Percent Cytotoxicity: 7.0 ± 0.7%
[5]; 100 nM
  Percent Cytotoxicity: 16.1 ± 3.9%
[5]; 100 PM
  Percent Cytotoxicity: 4.0 ± 0.6%
[6]; A549, 10 nM
  Percent Cytotoxicity: 17.9 ± 0.9%
[6]; A549, 100 nM
  Percent Cytotoxicity: 6.7 ± 2.0%
[7]; SW620, 1 nM
  Percent Cytotoxicity: 32.0 ± 5.8%
[7]; SW620, 10 nM
  Percent Cytotoxicity: 20.8 ± 1.9%
[7]; SW620, 100 nM
  Percent Cytotoxicity: 25.4 ± 2.9%
[7]; SW620, 100 PM
  Percent Cytotoxicity: 33.6 ± 5.8%
[8]; HT29, 10 nM
  Percent Cytotoxicity: 28.2 ± 2.8%
[8]; HT29, 100 nM
  Percent Cytotoxicity: 15.5 ± 1.9%

## CC[C@H](C)[C@H](NC(=O)[C@H](Cc1c[nH]cn1)NC(=O)CNC(=O)[C@@H](NC(=O)C(C)(C)NC(=O)[C@H](Cc1c[nH]c2ccccc12)NC(=O)[C@H](CCC(N)=O)NC(=O)[C@H](N)Cc1ccccc1)C(C)C)C(N)=O [SEQ ID: 6, D-Phe-Gln-Trp-Aib-Val-Gly-His-Ile-NH2] (H-[dF]QW[Aib]VGHI-NH2; N-terminus assumed)
[1]; MOLT4, 1 nM
  Percent Cytotoxicity: 0.8 ± 0.1%
[1]; MOLT4, 10 nM
  Percent Cytotoxicity: 20.4 ± 4.3%
[1]; MOLT4, 100 nM
  Percent Cytotoxicity: NIL
[1]; MOLT4, 100 PM
  Percent Cytotoxicity: 11.0 ± 0.6%
[2]; PA-1, 1 nM
  Percent Cytotoxicity: 7.4 ± 1.0%
[2]; PA-1, 10 nM
  Percent Cytotoxicity: 8.7 ± 1.9%
[2]; PA-1, 100 nM
  Percent Cytotoxicity: 9.2 ± 1.0%
[2]; PA-1, 100 PM
  Percent Cytotoxicity: 11.1 ± 2.9%
[3]; DU145, 1 nM
  Percent Cytotoxicity: 3.9 ± 5.2%
[3]; DU145, 10 nM
  Percent Cytotoxicity: 16.6%
[3]; DU145, 100 nM
  Percent Cytotoxicity: 13.7 ± 0.9%
[3]; DU145, 100 PM
  Percent Cytotoxicity: 12.1 ± 0.8%
[4]; 1 nM
  Percent Cytotoxicity: 9.1 ± 0.7%
[4]; 10 nM
  Percent Cytotoxicity: 10.4 ± 0.8%
[4]; 100 nM
  Percent Cytotoxicity: 24.7 ± 5.2%
[4]; 100 PM
  Percent Cytotoxicity: 10.1 ± 0.6%
[5]; 1 nM
  Percent Cytotoxicity: 1.2 ± 0.3%
[5]; 10 nM
  Percent Cytotoxicity: 6.0 ± 0.4%
[5]; 100 nM
  Percent Cytotoxicity: 17.0 ± 0.5%
[5]; 100 PM
  Percent Cytotoxicity: NIL
[6]; A549, 1 nM
  Percent Cytotoxicity: 13.0 ± 0.8%
[6]; A549, 10 nM
  Percent Cytotoxicity: 3.2 ± 0.1%
[6]; A549, 100 nM
  Percent Cytotoxicity: 1.9 ± 0.6%
[6]; A549, 100 PM
  Percent Cytotoxicity: 12.4 ± 0.7%
[7]; SW620, 1 nM
  Percent Cytotoxicity: 33.5 ± 5.2%
[7]; SW620, 10 nM
  Percent Cytotoxicity: 38.1 ± 7.3%
[7]; SW620, 100 nM
  Percent Cytotoxicity: 23.5 ± 5.1%
[7]; SW620, 100 PM
  Percent Cytotoxicity: 24.8 ± 4.2%
[8]; HT29, 1 nM
  Percent Cytotoxicity: 26.7 ± 4.2%
[8]; HT29, 10 nM
  Percent Cytotoxicity: 6.8 ± 0.7%
[8]; HT29, 100 nM
  Percent Cytotoxicity: NIL
[8]; HT29, 100 PM
  Percent Cytotoxicity: 16.8 ± 0.5%

## CCCC(=O)N[C@H](Cc1ccccc1)C(=O)N[C@@H](CCC(N)=O)C(=O)N[C@@H](Cc1c[nH]c2ccccc12)C(=O)N[C@@H](C)C(=O)N[C@H](C(=O)NC(C)(C)C(=O)N[C@@H](Cc1c[nH]cn1)C(=O)N[C@@H](CC(C)C)C(N)=O)C(C)C [SEQ ID: 11, Butanoyl-D-Phe-Gln-Trp-Ala-Val-Aib-His-Leu-NH2] (Butyryl-[dF]QWAV[Aib]HL-NH2)
[9]; 10 pM
  Percentage cytotoxicity: 21.6 ± 3.7%
[9]; 100 pM
  Percentage cytotoxicity: 26.7 ± 5.1%
[9]; 1 nM
  Percentage cytotoxicity: 33.1 ± 2.1%
[9]; 10 nM
  Percentage cytotoxicity: 31.9 ± 3.1%
[9]; 100 nM
  Percentage cytotoxicity: 31.9 ± 2.1%
[9]; 1 μM
  Percentage cytotoxicity: 24.2 ± 1.2%
[10]; 10 pM
  Percentage cytotoxicity: 19.7 ± 0.6%
[10]; 100 pM
  Percentage cytotoxicity: 28.3 ± 0.8%
[10]; 1 nM
  Percentage cytotoxicity: 28.5 ± 2.8%
[10]; 10 nM
  Percentage cytotoxicity: 25.7 ± 4.1%
[10]; 100 nM
  Percentage cytotoxicity: 25.8 ± 2.5%
[10]; 1 μM
  Percentage cytotoxicity: 18.6 ± 1.5%
[11]; HuTu80, 10 pM
  Percentage cytotoxicity: 17.6 ± 1.6%
[11]; HuTu80, 100 pM
  Percentage cytotoxicity: 22.6 ± 3.9%
[11]; HuTu80, 1 nM
  Percentage cytotoxicity: 30.5 ± 4.1%
[11]; HuTu80, 10 nM
  Percentage cytotoxicity: 27.3 ± 2.7%
[11]; HuTu80, 100 nM
  Percentage cytotoxicity: 20.0 ± 3.1%
[11]; HuTu80, 1 μM
  Percentage cytotoxicity: 14.2 ± 0.1%
[12]; SW620, 10 pM
  Percentage cytotoxicity: 20.4 ± 0.3%
[12]; SW620, 100 pM
  Percentage cytotoxicity: 25.9 ± 3.8%
[12]; SW620, 1 nM
  Percentage cytotoxicity: 35.1 ± 2.2%
[12]; SW620, 10 nM
  Percentage cytotoxicity: 31.5 ± 2.6%
[12]; SW620, 100 nM
  Percentage cytotoxicity: 21.0 ± 1.5%
[12]; SW620, 1 μM
  Percentage cytotoxicity: 23.7 ± 1.4%
[13]; HBL100, 10 pM
  Percentage cytotoxicity: 18.2 ± 1.1%
[13]; HBL100, 100 pM
  Percentage cytotoxicity: 15.4 ± 4.1%
[13]; HBL100, 1 nM
  Percentage cytotoxicity: 24.3 ± 1.6%
[13]; HBL100, 10 nM
  Percentage cytotoxicity: 29.9 ± 0.3%
[13]; HBL100, 100 nM
  Percentage cytotoxicity: 22.7 ± 0.5%
[13]; HBL100, 1 μM
  Percentage cytotoxicity: 24.5 ± 0.8%
[14]; HeP2, 10 pM
  Percentage cytotoxicity: 15.1 ± 0.3%
[14]; HeP2, 100 pM
  Percentage cytotoxicity: 20.1 ± 0.0%
[14]; HeP2, 1 nM
  Percentage cytotoxicity: 37.1 ± 3.3%
[14]; HeP2, 10 nM
  Percentage cytotoxicity: 34.6 ± 2.2%
[14]; HeP2, 100 nM
  Percentage cytotoxicity: 23.9 ± 1.1%
[14]; HeP2, 1 μM
  Percentage cytotoxicity: 21.9 ± 2.1%
[15]; L132, 10 pM
  Percentage cytotoxicity: 0.5 ± 0.0%
[15]; L132, 100 pM
  Percentage cytotoxicity: 18.3 ± 0.9%
[15]; L132, 1 nM
  Percentage cytotoxicity: 29.4 ± 0.4%
[15]; L132, 10 nM
  Percentage cytotoxicity: 30.4 ± 0.4%
[15]; L132, 100 nM
  Percentage cytotoxicity: 20.4 ± 1.5%
[15]; L132, 1 μM
  Percentage cytotoxicity: 1.4 ± 1.1%
[16]; 10 pM
  Percentage cytotoxicity: 21.9 ± 2.1%
[16]; 100 pM
  Percentage cytotoxicity: 26.5 ± 2.6%
[16]; 1 nM
  Percentage cytotoxicity: 24.2 ± 1.7%
[16]; 10 nM
  Percentage cytotoxicity: 20.0 ± 0.0%
[16]; 100 nM
  Percentage cytotoxicity: 15.5 ± 0.6%
[16]; 1 μM
  Percentage cytotoxicity: 1.0 ± 0.1%
